Source: PMC8734228 (Cancer discovery, 2021)

system: cells dissociated from PDX FLC1 and FLC5; test: Primary high throughput screen, 1μM, 72 h; format: cell-based, human; settings: pass = survival <60%

SMILES | Result in primary screen (normalized percent survival)
COc1ccc(C[C@H](NC(=O)[C@H](C)NC(=O)CN2CCOCC2)C(=O)N[C@@H](Cc2ccccc2)C(=O)C2(C)CO2)cc1 (stereo in doubt) [ONX-0914] | did not see any effect
Cc1cc(C(=O)NOCCO)c(Nc2ccc(I)cc2F)n(C)c1=O [AZD8330] | None
CN(C)Cc1cccc(N/C(=C2\C(=O)Nc3cc(C(N)=O)ccc32)c2ccccc2)c1 [BIX02188] | None
CN(C)Cc1cccc(N/C(=C2\C(=O)Nc3cc(C(=O)N(C)C)ccc32)c2ccccc2)c1 [BIX02189] | None
CC(=O)O/N=C1\C(=O)N(Cc2cc(Cl)ccc2Cl)c2ccc(Cl)cc21 [LDN-57444] | did not see any effect
CC(C)C[C@H](NC(=O)CNC(=O)c1cc(Cl)ccc1Cl)B1OC(=O)C(CC(=O)O)(CC(=O)O)O1 [MLN9708] | did not see any effect
COc1cccc(-c2cc(=O)c3ccccc3o2)c1N [PD98059] | None
O=C(NOCC1CC1)c1ccc(F)c(F)c1Nc1ccc(I)cc1Cl [PD184352] | None
Cc1cc(I)ccc1Nc1c(C(=O)NOCC2CC2)cc(F)c(F)c1F [PD198306] | None
N#C/C(=C(/N)Sc1ccc(N)cc1)c1ccccc1C(F)(F)F [SL-327] | None
Cn1c(=O)c(F)c(Nc2ccc(I)cc2F)c2c(=O)n(C[C@@H](O)CO)cnc21 [TAK-733] | None
N#CC(=C(/N)Sc1ccccc1N)/C(C#N)=C(/N)Sc1ccccc1N [U0126] | None
CC(C)(C#N)c1cc(Cn2cncn2)cc(C(C)(C)C#N)c1 [anastrozole] | did not pass our primary screen
COc1cc(C[C@H]2C(=O)OC[C@@H]2Cc2ccc(OC)c(OC)c2)ccc1O [arctigenin] | None
Cn1cnc2c(F)c(Nc3ccc(Br)cc3F)c(C(=O)NOCCO)cc21 [binimetinib] | None
CC(C)C[C@H](NC(=O)[C@H](Cc1ccccc1)NC(=O)c1cnccn1)B(O)O [bortezomib] | did not see any effect
N.N.O=C([O-])C1(C(=O)[O-])CCC1.[Pt+2] [carboplatin] | no to minimal activity
N.N.[Cl][Pt][Cl] [cisplatin] | no to minimal activity

SMILES | Result in primary screen (normalized percent survival)
O=C(c1ccc(F)c(F)c1Nc1ccc(I)cc1F)N1CC(O)([C@@H]2CCCCN2)C1 [cobimetinib] | None
CC(C)(C)OC(=O)N[C@H]1CCCCC/C=C\[C@@H]2C[C@@]2(C(=O)NS(=O)(=O)C2CC2)NC(=O)[C@@H]2C[C@@H](OC(=O)N3Cc4cccc(F)c4C3)CN2C1=O [danoprevir] | did not see any effect
CCC[C@H](NC(=O)/C(C#N)=C/c1cccc(Br)n1)c1ccccc1 [degrasyn] | did not see any effect
CC(C)C[C@H](NC(=O)[C@@H](NC(=O)c1cccc(-c2ccccc2)n1)[C@@H](C)O)B(O)O [delanzomib] | did not see any effect
COc1cc([C@@H]2c3cc4c(cc3[C@@H](O[C@@H]3O[C@@H]5CO[C@@H](C)O[C@H]5[C@H](O)[C@H]3O)[C@H]3COC(=O)[C@H]23)OCO4)cc(OC)c1O [etoposide] | no to minimal activity
C=C1C[C@@H]2[C@H](CC[C@]3(C)C(=O)CC[C@@H]23)[C@@]2(C)C=CC(=O)C=C12 [exemestane] | did not pass our primary screen
N#Cc1ccc(C2CCCc3cncn32)cc1 (centres unmarked) [fadrozole] | did not pass our primary screen
O=c1[nH]cc(F)c(=O)[nH]1 [fluorouracil] | no to minimal activity
C[C@]12CCC(=O)C(O)=C1CC[C@@H]1[C@@H]2CC[C@]2(C)C(=O)CC[C@@H]12 [formestane] | did not pass our primary screen
Nc1ccn([C@@H]2O[C@H](CO)[C@@H](O)C2(F)F)c(=O)n1 [gemcitabine] | no to minimal activity
O=P1(NCCCl)OCCCN1CCCl (centres unmarked) [ifosfamide] | no to minimal activity
CC(C)C[C@H](NC(=O)CNC(=O)c1cc(Cl)ccc1Cl)B(O)O [ixazomib] | did not see any effect
N#Cc1ccc(C(c2ccc(C#N)cc2)n2cncn2)cc1 [letrozole] | did not pass our primary screen
O=C(NOC[C@H](O)CO)c1ccc(F)c(F)c1Nc1ccc(I)cc1F [mirdametinib] | None
O=C1[O][Pt]2([NH][C@@H]3CCCC[C@H]3[NH]2)[O]C1=O [oxaliplatin] | no to minimal activity
O=C(NC[C@H](O)CO)c1ccncc1Nc1ccc(I)cc1F [pimasertib] | None
Cn1cnc2c(F)c(Nc3ccc(Br)cc3Cl)c(C(=O)NOCCO)cc21 [selumetinib] | None

system: primary human hepatocytes (PHH); test: Validation counter-screen on primary human hepatocytes; settings: read-out: EC50 PHH; 72 h

SMILES | EC50 [nM]
Clc1ccc(N/N=C(\c2ccccc2)c2ccccn2)nc1 [JIB-04] | > 10000

same assay, conditions: up to 10 μM, 72 h

SMILES | Effect on PHH (dose response, normalized percent survival)
CONC(=O)[C@H]1[C@@H](O)[C@@]2(O)c3c(OC)cc(OC)cc3O[C@@]2(c2ccc(OC)cc2)[C@@H]1c1ccccc1 [CR-1-31-B] | no effect
CCc1cnn2c(NCc3ccc[n+]([O-])c3)cc(N3CCCC[C@H]3CCO)nc12 [dinaciclib] | toxic

system: FLC1 cells; test: Role of ROS: survival with or without N-acetyl cysteine 10mM; format: cell-based, human; settings: NAC 10mM, 72 h

SMILES | Effect of N-acetyl cysteine (NAC) on the toxicity of the drug
CC(C)c1c2cc(-c3ccnc(NC4CCC(NC5CCOCC5)CC4)n3)ccc2nn1C (centres unmarked) [LY2857785] | mildly attenuated
Cc1ccc(S(=O)(=O)c2ccc([N+](=O)[O-])o2)cc1 [NSC697923] | completely abrogated

system: FLC PDX cells; test: Validation screen on cells dissociated from FLC PDX; format: cell-based, human; settings: 10nM-10μM, 72 h, FLC1-6

SMILES | Effect on FLC PDX cells in vitro (dose response, normalized percent survival)
COc1ccc(S(=O)(=O)Nc2cc(-c3c(O)ccc4ccccc34)c(O)c3ccccc23)cc1 [C188-9] | no effect
C#Cc1cccc(Nc2ncnc3cc(OCCOC)c(OCCOC)cc23)c1 [Erlotinib] | no effect
CC1(C)C=C(CN2C/C(=C\c3ccc(F)cc3)C(=O)/C(=C/c3ccc(F)cc3)C2)C(C)(C)N1O [HO3867] | no effect
Clc1ccc(N/N=C(\c2ccccc2)c2ccccn2)nc1 [JIB-04] | effective against all PDX lines
COc1ccc(-c2ccc3ncc4c(c3c2)n(-c2ccc(N3CCNCC3)c(C(F)(F)F)c2)c(=O)n4C)cn1 [NVP-BGT226] | potency against all FLC PDX
COc1cc(Nc2ncc3c(n2)-c2ccc(Cl)cc2C(c2c(F)cccc2OC)=NC3)ccc1C(=O)O [alisertib] | no effect
COc1ccc(-c2nc(N3CCOCC3)c3sc(CN(C)c4ncc(C(=O)NO)cn4)cc3n2)cn1 [fimepinostat] | affected FLC1,3,4
CCc1c2c(nc3ccc(OC(=O)N4CCC(N5CCCCC5)CC4)cc13)-c1cc3c(c(=O)n1C2)COC(=O)[C@]3(O)CC [irinotecan] | no effect

same assay, conditions: FLC PDX cells compared with PHH

SMILES | Therapeutic window for FLC over PHH
CNC(=O)c1cccc(-c2ccc3c(N4CCOC[C@@H]4C)nc(N4CCOC[C@@H]4C)nc3n2)c1 [AZD2014] | no therapeutic window
Cc1c(CN2CCN(C(=O)[C@H](C)O)CC2)sc2c(N3CCOCC3)nc(-c3cnc(N)nc3)nc12 [GDC0980] | no therapeutic window
COc1cccc2cc(-c3nc([C@H]4CC[C@H](C(=O)O)CC4)n4ncnc(N)c34)[nH]c12 [OSI-027] | no therapeutic window
CNC(=O)c1cc(Oc2ccc(NC(=O)Nc3ccc(Cl)c(C(F)(F)F)c3)cc2)ccn1 [Sorafenib] | no therapeutic window
CNC(=O)Nc1ccc(-c2nc(N3CC4CCC(C3)O4)c3cnn(C4CCC5(CC4)OCCO5)c3n2)cc1 [WYE-125132] | no therapeutic window
CNC(=O)c1cc(Oc2ccc(NC(=O)Nc3ccc(Cl)c(C(F)(F)F)c3)c(F)c2)ccn1 [regorafenib] | no therapeutic window

same assay, conditions: ranked by average −log10EC50 for FLC1-5 minus −log10EC50 for PHH

SMILES | Efficacy ranking in the screen
CN(NC(=O)CC(=O)NN(C)C(=S)c1ccccc1)C(=S)c1ccccc1 [Elesclomol] | sixth
Clc1ccc(N/N=C(\c2ccccc2)c2ccccn2)nc1 [JIB-04] | second
Cc1cc(OCc2nnc(SC3CCCC3)n2-c2cccnc2)ccc1-c1ccc(S(C)(=O)=O)cc1 [NMS873] | 72
Cc1ccc(S(=O)(=O)c2ccc([N+](=O)[O-])o2)cc1 [NSC697923] | 7
CC(=O)c1cc([N+](=O)[O-])c(Sc2cccc(Cl)c2Cl)s1 [P5091] | 38
COc1ccc(-c2nc(N3CCOCC3)c3sc(CN(C)c4ncc(C(=O)NO)cn4)cc3n2)cn1 [fimepinostat] | 22
CC1(C)CCC(c2ccc(Cl)cc2)=C(CN2CCN(c3ccc(C(=O)NS(=O)(=O)c4ccc(N[C@H](CCN5CCOCC5)CSc5ccccc5)c(S(=O)(=O)C(F)(F)F)c4)cc3)CC2)C1 [navitoclax] | fifth

same assay, conditions: ranked by average −log10EC50 for FLC1-5 minus −log10EC50 for PHH; listed as Navitoclax

SMILES | Efficacy ranking in the screen
CC1(C)CCC(c2ccc(Cl)cc2)=C(CN2CCN(c3ccc(C(=O)NS(=O)(=O)c4ccc(N[C@H](CCN5CCOCC5)CSc5ccccc5)c(S(=O)(=O)C(F)(F)F)c4)cc3)CC2)C1 [navitoclax] | 5

same assay, conditions: read-out: EC50 against FLC PDX in vitro; across all FLC PDX lines, 72 h

SMILES | EC50 [nM]
Clc1ccc(N/N=C(\c2ccccc2)c2ccccn2)nc1 [JIB-04] | 20 to 200

system: cells dissociated directly from patient tumors (FLC.T6-T11); test: Direct from patient in vitro screening; format: cell-based, human; settings: 10μM-10nM, 72h, Cell Titer Glo

SMILES | Sensitivity of cells tested directly from patients
CONC(=O)[C@H]1[C@@H](O)[C@@]2(O)c3c(OC)cc(OC)cc3O[C@@]2(c2ccc(OC)cc2)[C@@H]1c1ccccc1 [CR-1-31-B] | sensitive
CC(C)c1c2cc(-c3ccnc(NC4CCC(NC5CCOCC5)CC4)n3)ccc2nn1C (centres unmarked) [LY2857785] | some sensitivity
Cc1ccc(S(=O)(=O)c2ccc([N+](=O)[O-])o2)cc1 [NSC697923] | blunted response
CCc1cnn2c(NCc3ccc[n+]([O-])c3)cc(N3CCCC[C@H]3CCO)nc12 [dinaciclib] | some sensitivity

same assay, conditions: cells direct from patient tumor vs cells from its PDX

SMILES | Drug sensitivity of FLC.T6 compared with derived PDX FLC6 (EC50)
Cc1ccc(S(=O)(=O)c2ccc([N+](=O)[O-])o2)cc1 [NSC697923] | outliers
